Measurements as given in patent US9884125B2, “Glucose-responsive insulin conjugates” (Merck Sharp & Dohme Corp., priority 2013, dated 2018).

Target: T1, Human macrophage mannose receptor 1 (MRC1) (Homo sapiens, UniProt P22897)
T1 sequence (P22897 19-1456): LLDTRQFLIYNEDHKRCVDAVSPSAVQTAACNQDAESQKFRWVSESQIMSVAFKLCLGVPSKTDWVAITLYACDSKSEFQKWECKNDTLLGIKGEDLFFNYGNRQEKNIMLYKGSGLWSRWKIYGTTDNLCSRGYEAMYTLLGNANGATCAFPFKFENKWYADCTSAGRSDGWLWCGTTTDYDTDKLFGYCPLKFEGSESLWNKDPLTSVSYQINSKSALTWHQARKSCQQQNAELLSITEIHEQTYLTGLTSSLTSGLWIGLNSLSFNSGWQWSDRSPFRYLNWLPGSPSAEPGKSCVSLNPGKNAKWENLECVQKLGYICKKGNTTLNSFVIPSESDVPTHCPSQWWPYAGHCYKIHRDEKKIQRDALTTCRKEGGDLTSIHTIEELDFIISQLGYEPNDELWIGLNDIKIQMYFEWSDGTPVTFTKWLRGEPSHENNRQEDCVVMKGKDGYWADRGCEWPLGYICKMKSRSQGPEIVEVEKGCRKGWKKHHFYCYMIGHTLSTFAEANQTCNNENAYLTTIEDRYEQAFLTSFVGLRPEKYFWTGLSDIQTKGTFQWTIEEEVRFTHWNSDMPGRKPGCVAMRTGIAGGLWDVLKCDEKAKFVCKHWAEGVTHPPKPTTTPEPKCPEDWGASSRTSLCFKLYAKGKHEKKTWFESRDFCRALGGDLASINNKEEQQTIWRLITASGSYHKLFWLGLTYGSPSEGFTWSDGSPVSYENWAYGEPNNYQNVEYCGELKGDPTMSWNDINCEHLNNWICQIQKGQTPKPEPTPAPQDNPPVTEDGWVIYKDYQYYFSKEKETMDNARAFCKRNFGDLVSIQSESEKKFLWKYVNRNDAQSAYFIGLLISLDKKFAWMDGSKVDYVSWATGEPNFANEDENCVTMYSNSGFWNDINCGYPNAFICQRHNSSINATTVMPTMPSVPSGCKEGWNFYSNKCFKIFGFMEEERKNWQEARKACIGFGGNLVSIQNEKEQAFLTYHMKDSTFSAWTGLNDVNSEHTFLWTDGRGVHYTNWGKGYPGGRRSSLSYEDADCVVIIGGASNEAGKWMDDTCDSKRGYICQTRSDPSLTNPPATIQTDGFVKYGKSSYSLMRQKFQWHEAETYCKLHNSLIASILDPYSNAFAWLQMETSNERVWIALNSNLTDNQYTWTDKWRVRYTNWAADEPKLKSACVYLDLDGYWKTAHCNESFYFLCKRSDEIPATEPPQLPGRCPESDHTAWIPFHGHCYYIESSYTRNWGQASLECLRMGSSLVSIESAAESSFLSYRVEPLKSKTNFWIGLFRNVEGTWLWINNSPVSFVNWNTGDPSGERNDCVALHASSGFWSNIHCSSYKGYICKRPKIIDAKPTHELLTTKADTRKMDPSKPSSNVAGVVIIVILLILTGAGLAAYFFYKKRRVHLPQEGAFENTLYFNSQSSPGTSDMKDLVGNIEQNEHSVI
Test: MRC1 competition binding assay (Eu-mannosylated-BSA), Method F: 96-well, manual liquid dispense
Conditions: read-out: MRC1 Binding IP (inflection point, corresponds to IC50)
Description: The competition binding assay for MRC1 utilized a ligand, mannosylated-BSA labeled with the DELFIA Eu-N1-ITC reagent, as reported in the literature. […] The antibody was incubated in the plate for 1 hr at room temperature with shaking. The plate was washed with wash buffer 3-5 times followed by addition of MRC1 (2 ng/μl final concentration) in 25 μl PBS containing 1% stabilizer BSA. The plate was incubated at room temperature with gentle shaking for 1 hr. The plate was washed three times with wash buffer. […]
Their in vitro biological activities towards insulin receptor (IR) were measured by either ligand competition assays or functional phosphorylation assays, as described above, labeled as following: Method A: IR phosphorylation assay based on 96-well with manual liquid dispense; Method B: IR phosphorylation assay based on 96-well with automated liquid dispense; Method C: IR phosphorylation assay based on 384-well with automated liquid dispense; Method D: IR binding assay method D; Method E: IR binding assay method E; Method F: MRC1 assay was performed in a 96-well plate with a manual liquid dispense; Method G: MRC1 assay was performed in a 96-well plate with an automated liquid dispense; Method H: MRC1 assay was performed in a 384-well plate with an automated dispense.

| SMILES | IC50 [nM] |
| --- | --- |
| CC[C@H](C)[C@H](NC(=O)CN)C(=O)N[C@H](C(=O)N[C@@H](CCC(=O)O)C(=O)N[C@@H](CCC(N)=O)C(=O)N[C@H]1CSSC[C@@H]2NC(=O)[C@H]([C@@H](C)CC)NC(=O)[C@H](CO)NC(=O)[C@H]([C@@H](C)O)NC(=O)[C@H](CSSC[C@H](NC(=O)[C@H](CC(C)C)NC(=O)[C@H](Cc3c[nH]cn3)NC(=O)[C@H](CCC(N)=O)NC(=O)[C@H](CC(N)=O)NC(=O)[C@@H](NC(=O)[C@@H](N)Cc3ccccc3)C(C)C)C(=O)NCC(=O)N[C@@H](CO)C(=O)N[C@@H](Cc3c[nH]cn3)C(=O)N[C@@H](CC(C)C)C(=O)N[C@@H](C(C)C)C(=O)N[C@@H](CCC(=O)O)C(=O)N[C@@H](C)C(=O)N[C@@H](CC(C)C)C(=O)N[C@@H](Cc3ccc(O)cc3)C(=O)N[C@@H](CC(C)C)C(=O)N[C@@H](C(C)C)C(=O)N[C@H](C(=O)NCC(=O)N[C@@H](CCC(=O)O)C(=O)N[C@@H](CCCNC(=N)N)C(=O)NCC(=O)N[C@@H](Cc3ccccc3)C(=O)N[C@@H](Cc3ccccc3)C(=O)N[C@@H](Cc3ccc(O)cc3)C(=O)N[C@H](C(=O)N3CCC[C@H]3C(=O)N[C@@H](CCCCNC(=O)CCCCC(=O)N(CC(=O)NCCO[C@@H]3O[C@@H](C)[C@@H](O)[C@@H](O)[C@@H]3O)CC(=O)NCCO[C@@H]3O[C@@H](C)[C@@H](O)[C@@H](O)[C@@H]3O)C(=O)N[C@H](C(=O)O)[C@@H](C)O)[C@@H](C)O)CSSC[C@@H](C(=O)N[C@@H](CC(N)=O)C(=O)O)NC(=O)[C@H](Cc3ccc(O)cc3)NC(=O)[C@H](CC(N)=O)NC(=O)[C@H](CCC(=O)O)NC(=O)[C@H](CC(C)C)NC(=O)[C@H](CCC(N)=O)NC(=O)[C@H](Cc3ccc(O)cc3)NC(=O)[C@H](CC(C)C)NC(=O)[C@H](CO)NC2=O)NC1=O)C(C)C [IOC-12] | 92.5 |
| CC[C@H](C)[C@H](NC(=O)CNC(=O)CCCCC(=O)N(CC(=O)NCCO[C@@H]1O[C@@H](C)[C@@H](O)[C@@H](O)[C@@H]1O)CC(=O)NCCO[C@@H]1O[C@@H](C)[C@@H](O)[C@@H](O)[C@@H]1O)C(=O)N[C@H](C(=O)N[C@@H](CCC(=O)O)C(=O)N[C@@H](CCC(N)=O)C(=O)N[C@H]1CSSC[C@@H]2NC(=O)[C@H]([C@@H](C)CC)NC(=O)[C@H](CO)NC(=O)[C@H]([C@@H](C)O)NC(=O)[C@H](CSSC[C@H](NC(=O)[C@H](CC(C)C)NC(=O)[C@H](Cc3c[nH]cn3)NC(=O)[C@H](CCC(N)=O)NC(=O)[C@H](CC(N)=O)NC(=O)[C@@H](NC(=O)[C@@H](N)Cc3ccccc3)C(C)C)C(=O)NCC(=O)N[C@@H](CO)C(=O)N[C@@H](Cc3c[nH]cn3)C(=O)N[C@@H](CC(C)C)C(=O)N[C@@H](C(C)C)C(=O)N[C@@H](CCC(=O)O)C(=O)N[C@@H](C)C(=O)N[C@@H](CC(C)C)C(=O)N[C@@H](Cc3ccc(O)cc3)C(=O)N[C@@H](CC(C)C)C(=O)N[C@@H](C(C)C)C(=O)N[C@H](C(=O)NCC(=O)N[C@@H](CCC(=O)O)C(=O)N[C@@H](CCCNC(=N)N)C(=O)NCC(=O)N[C@@H](Cc3ccccc3)C(=O)N[C@@H](Cc3ccccc3)C(=O)N[C@@H](Cc3ccc(O)cc3)C(=O)N[C@H](C(=O)N3CCC[C@H]3C(=O)N[C@@H](CCCCN)C(=O)N[C@H](C(=O)O)[C@@H](C)O)[C@@H](C)O)CSSC[C@@H](C(=O)N[C@@H](CC(N)=O)C(=O)O)NC(=O)[C@H](Cc3ccc(O)cc3)NC(=O)[C@H](CC(N)=O)NC(=O)[C@H](CCC(=O)O)NC(=O)[C@H](CC(C)C)NC(=O)[C@H](CCC(N)=O)NC(=O)[C@H](Cc3ccc(O)cc3)NC(=O)[C@H](CC(C)C)NC(=O)[C@H](CO)NC2=O)NC1=O)C(C)C [IOC-13] | 107 |
